This note sets out measurements from paper PMC10048095, “Sol-Gel Films Doped with Enzymes and Banana Crude Extract as Sensing Materials for Spectrophotometric Determination” (Gels, 2023).

Test [1] concerns the target T1, Horseradish peroxidase (HRP) (Armoracia rusticana, UniProt P00433).
T1 construct: gene PRXC1A
T1 sequence (P00433 31-338): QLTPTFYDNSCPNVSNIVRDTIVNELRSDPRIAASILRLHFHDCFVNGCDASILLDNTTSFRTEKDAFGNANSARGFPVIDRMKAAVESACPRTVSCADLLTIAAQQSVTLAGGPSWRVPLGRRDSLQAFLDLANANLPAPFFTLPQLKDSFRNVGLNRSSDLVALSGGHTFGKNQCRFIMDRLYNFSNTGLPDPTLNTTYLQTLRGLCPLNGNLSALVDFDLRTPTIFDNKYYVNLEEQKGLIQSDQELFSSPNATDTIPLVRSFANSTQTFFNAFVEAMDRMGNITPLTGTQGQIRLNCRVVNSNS
Description: absorbance at […] nm, initial rates. The test is classed as biochemical. The following applies: H2O2 as co-substrate; enzyme in solution and in sol-gel films; pH 6.0.

Test [2] relates to T2, Mushroom tyrosinase (MT).
T2 construct: gene PPO3
Conditions: read-out: KM, mM / Solution; free enzyme in solution; pH 6.0 buffer; air oxygen.

In the case of `Cc1cc(-c2cc(C)c(N)c(C)c2)cc(C)c1N` [3,3′,5,5′-tetramethylbenzidine], the “absorbance at 650 nm, initial rates” value in test [1] is recorded as “hydrogen peroxide reduction with TMB oxidation”. In the case of `O=C(O)/C=C/c1ccc(O)c(O)c1` [Caffeic acid], in test [2], the Km came out at 1.1 mM.
